The values that follow come from ChEMBL document CHEMBL3997799, “Synthesis and anti-proliferative activity evaluation of novel benzo[d][1,3] dioxoles-fused 1,4-thiazepines” (Eur J Med Chem, 2017).

Assay [1] relates to EC9706. Nature of the assay: Antiproliferative activity against human EC9706 cells after 48 hrs by MTT assay. The following applies: EC9706, 48 h. It counts as functional, cell-based.
The next assay has as its system ECa-109 cell line. In words: Antiproliferative activity against human ECA109 cells after 48 hrs by MTT assay. It counts as functional, cell-based. Conditions: ECa-109, 48 h. Background: Tetrazolium assays rely on reduction of a dye to a coloured formazan, in cell work by metabolically active cells.
A short description of assay [2]: Potency index, ratio of 5-fluorouracil IC50 to test compound IC50 for human ECA109 cells. It counts as functional.
For assay [3], the system named is EC9706. In words: Potency index, ratio of 5-fluorouracil IC50 to test compound IC50 for human EC9706 cells. It counts as functional.

Consider `O=C1CSC(c2cccs2)c2cc3c(cc2N1)OCO3` (stereo not given), for which the half-maximal inhibitory concentration (IC50) (usually the midpoint of a concentration-inhibition curve) in the assay on EC9706 [1] was determined as 69.6 µM; in the assay with ECa-109 cell line, 95.5 µM.

Take `O=C1CSC(c2ccc(Cl)cc2)c2cc3c(cc2N1)OCO3` (stereo not given): the IC50 came out at 34.4 µM with EC9706 [1] and 36.2 µM in the assay with ECa-109 cell line.

As for `O=C1CSC(c2ccc([N+](=O)[O-])cc2)c2cc3c(cc2N1)OCO3` (stereo not given), the IC50 in the assay with EC9706 [1] turned out to be 24.9 µM; in the assay on ECa-109 cell line, 42.3 µM.

Consider `COc1cccc(C2SCC(=O)Nc3cc4c(cc32)OCO4)c1` (stereo not given), for which the 50% inhibitory concentration (IC50) is 54.6 µM with EC9706 [1] and 49.6 µM in the assay on ECa-109 cell line.

Consider `O=c1[nH]cc(F)c(=O)[nH]1` [FLUOROURACIL], for which the IC50 was 23.3 µM in the assay with EC9706 [1] and 30.2 µM in the assay with ECa-109 cell line.

`CC1SC(c2cccc([N+](=O)[O-])c2)c2cc3c(cc2NC1=O)OCO3` (stereo not given): the half-inhibitory concentration (IC50) in the assay with EC9706 [1] came to 88.4 µM; in the assay with ECa-109 cell line, 106 µM.

Consider `CC1SC(c2ccc(Cl)cc2)c2cc3c(cc2NC1=O)OCO3` (stereo not given), for which the IC50 with EC9706 [1] and with ECa-109 cell line was over 200 µM throughout.

For `COc1cc(OC)cc(C2SCC(=O)Nc3cc4c(cc32)OCO4)c1` (stereo not given), the values for the 50% inhibitory concentration (IC50) with EC9706 [1] and with ECa-109 cell line were 11.7 µM and 30.3 µM, respectively.

As to `COc1ccc(C2SCC(=O)Nc3cc4c(cc32)OCO4)cc1Br` (stereo not given), the half-inhibitory concentration (IC50) in the assay with EC9706 [1] turned out to be 8.23 µM; in the assay on ECa-109 cell line, 16.2 µM. Moreover, the “Ratio IC50” value (in assay [2]; with EC9706 [3]) was 2 - 3 each time.

As to `Cc1ccc(C2SC(C)C(=O)Nc3cc4c(cc32)OCO4)cc1` (stereo not given), the half-inhibitory concentration (IC50) with EC9706 [1] and in the assay with ECa-109 cell line was over 200 µM in each case.

For the compound `CC1SC(c2ccc([N+](=O)[O-])cc2)c2cc3c(cc2NC1=O)OCO3` (stereo not given), the IC50 in the assay on EC9706 [1] amounted to 34.7 µM; with ECa-109 cell line it was 50.4 µM.

Turning to `O=C1CSC(c2cccc([N+](=O)[O-])c2)c2cc3c(cc2N1)OCO3` (stereo not given), the half-maximal inhibitory concentration (IC50) in the assay on EC9706 [1] and with ECa-109 cell line was over 200 µM throughout.

As to `O=C1CSC(c2ccc(F)cc2)c2cc3c(cc2N1)OCO3` (stereo not given), the IC50 was 106 µM in the assay on EC9706 [1] and over 200 µM in the assay with ECa-109 cell line.

Take `Cc1ccc(C2SCC(=O)Nc3cc4c(cc32)OCO4)cc1` (stereo not given): the values for the half-inhibitory concentration (IC50) in the assay with EC9706 [1] and with ECa-109 cell line were 17.1 µM and 27.7 µM, respectively.

With `COc1cc(C2SCC(=O)Nc3cc4c(cc32)OCO4)cc(OC)c1OC` (stereo not given), the half-inhibitory concentration (IC50) was 70.9 µM with EC9706 [1] and 130 µM in the assay on ECa-109 cell line.

For `O=C1CSC(c2ccccc2)c2cc3c(cc2N1)OCO3` (stereo not given), the IC50 in the assay on EC9706 [1] was 43.2 µM; with ECa-109 cell line, 38.7 µM.

With `Cc1ccccc1C1SCC(=O)Nc2cc3c(cc21)OCO3` (stereo not given), the IC50 with EC9706 [1] was found to be 33.5 µM; in the assay with ECa-109 cell line, 55.5 µM.

For the compound `COc1ccc(C2SCC(=O)Nc3cc4c(cc32)OCO4)cc1` (stereo not given), the 50% inhibitory concentration (IC50) was determined as 16.4 µM in the assay with EC9706 [1] and 33 µM in the assay on ECa-109 cell line.

`O=C1CSC(c2ccco2)c2cc3c(cc2N1)OCO3` (stereo not given): the IC50 with EC9706 [1] came out at 30.3 µM; in the assay with ECa-109 cell line, 42 µM.
